Test results reported in ChEMBL document CHEMBL3885861, “Open TG-GATES”.

Species: Rattus norvegicus
Test: Open TG-GATES - Regimen: Single
Type: toxicity, organism-based, Sprague-Dawley
Set-up: regimen Single, gender Male, age 6 weeks
Details: in vivo, po, route gavage; for APTT / Bas / Eos / Fbg / Hb / Ht / Lym / MCH / MCHC / MCV / Mono / Neu / PT / Plat / RBC / Ret / WBC: tissue Blood; for KIDNEY_L / KIDNEY_R / KIDNEY_TOTAL: tissue Kidney; for LIVER: tissue Liver; for A/G / ALP / ALT / AST / BUN / CRE / Ca / Cl / DBIL / GLC / IP / K / LDH / Na / PL / RALB / TBIL / TC / TG / TP / gamma-GTP: tissue Plasma
[1] = 1000 mg/kg, 3 h, dose level Middle
[2] = 1000 mg/kg, 6 h, dose level Middle
[3] = 1000 mg/kg, 9 h, dose level Middle
[4] = 1000 mg/kg, 24 h, dose level Middle
[5] = 2000 mg/kg, 3 h, dose level High
[6] = 2000 mg/kg, 6 h, dose level High
[7] = 2000 mg/kg, 9 h, dose level High
[8] = 2000 mg/kg, 24 h, dose level High

COc1ccc(O)c(C(C)(C)C)c1.COc1ccc(O)cc1C(C)(C)C [BUTYLATED HYDROXYANISOLE]
TERMINAL_BW [1]: 206 g
APTT [1]: 14.7 s
Bas [1]: 0.2%
Eos [1]: 0.5%
Fbg [1]: 270.8 mg/dL
Hb [1]: 13.5 g/dL
Ht [1]: 39.4%
Lym [1]: 79.2%
MCH [1]: 20.8 pg
MCHC [1]: 34.3%
MCV [1]: 60.8 fL
Mono [1]: 1.9%
Neu [1]: 17.3%
PT [1]: 11.6 s
Plat [1]: 142.9 x10_4/uL
RBC [1]: 649 x10_4/ul
Ret [1]: 7.8%
WBC [1]: 77.2 x10_2/uL
KIDNEY_L [1]: 0.9 g
KIDNEY_R [1]: 0.9 g
KIDNEY_TOTAL [1]: 1.8 g
LIVER [1]: 8.6 g
A/G [1]: 0.8
ALP [1]: 1827.4 IU/L
ALT [1]: 53.4 IU/L
AST [1]: 77.8 IU/L
BUN [1]: 10.6 mg/dL
CRE [1]: 0.2 mg/dL
Ca [1]: 11.1 mg/dL
Cl [1]: 103.6 meq/L
DBIL [1]: 0.028 mg/dL
GLC [1]: 179.2 mg/dL
IP [1]: 10.3 mg/dL
K [1]: 3.5 meq/L
LDH [1]: 60.8 IU/L
Na [1]: 142.6 meq/L
PL [1]: 150.6 mg/dL
RALB [1]: 2.6 g/dL
TBIL [1]: 0.084 mg/dL
TC [1]: 85.2 mg/dL
TG [1]: 76.4 mg/dL
TP [1]: 5.8 g/dL
gamma-GTP [1]: 1 IU/L
TERMINAL_BW [2]: 201.1 g
APTT [2]: 15.6 s
Bas [2]: 0.2%
Eos [2]: 0.8%
Fbg [2]: 279.6 mg/dL
Hb [2]: 13.9 g/dL
Ht [2]: 40.4%
Lym [2]: 72.6%
MCH [2]: 21.2 pg
MCHC [2]: 34.3%
MCV [2]: 61.8 fL
Mono [2]: 1.6%
Neu [2]: 24.1%
PT [2]: 12.7 s
Plat [2]: 136.4 x10_4/uL
RBC [2]: 654.6 x10_4/ul
Ret [2]: 7.3%
WBC [2]: 78.7 x10_2/uL
KIDNEY_L [2]: 0.9 g
KIDNEY_R [2]: 0.8 g
KIDNEY_TOTAL [2]: 1.7 g
LIVER [2]: 7.5 g
A/G [2]: 0.9
ALP [2]: 1472.6 IU/L
ALT [2]: 49.4 IU/L
AST [2]: 74 IU/L
BUN [2]: 9.6 mg/dL
CRE [2]: 0.2 mg/dL
Ca [2]: 10.9 mg/dL
Cl [2]: 108.4 meq/L
DBIL [2]: 0.034 mg/dL
GLC [2]: 166 mg/dL
IP [2]: 9.8 mg/dL
K [2]: 4 meq/L
LDH [2]: 54.8 IU/L
Na [2]: 142.6 meq/L
PL [2]: 139.4 mg/dL
RALB [2]: 2.6 g/dL
TBIL [2]: 0.09 mg/dL
TC [2]: 81.4 mg/dL
TG [2]: 68.6 mg/dL
TP [2]: 5.7 g/dL
gamma-GTP [2]: 1 IU/L
TERMINAL_BW [3]: 199.9 g
APTT [3]: 16.6 s
Bas [3]: 0.2%
Eos [3]: 0.9%
Fbg [3]: 285 mg/dL
Hb [3]: 13.6 g/dL
Ht [3]: 39.7%
Lym [3]: 71.9%
MCH [3]: 21.1 pg
MCHC [3]: 34.4%
MCV [3]: 61.6 fL
Mono [3]: 1.6%
Neu [3]: 24.9%
PT [3]: 13.2 s
Plat [3]: 138.7 x10_4/uL
RBC [3]: 643.8 x10_4/ul
Ret [3]: 7.6%
WBC [3]: 65.3 x10_2/uL
KIDNEY_L [3]: 0.9 g
KIDNEY_R [3]: 0.8 g
KIDNEY_TOTAL [3]: 1.7 g
LIVER [3]: 7.5 g
A/G [3]: 0.8
ALP [3]: 1561.2 IU/L
ALT [3]: 41.6 IU/L
AST [3]: 72.8 IU/L
BUN [3]: 7.6 mg/dL
CRE [3]: 0.2 mg/dL
Ca [3]: 11 mg/dL
Cl [3]: 107.8 meq/L
DBIL [3]: 0.03 mg/dL
GLC [3]: 154.8 mg/dL
IP [3]: 10.3 mg/dL
K [3]: 4 meq/L
LDH [3]: 51.4 IU/L
Na [3]: 142.8 meq/L
PL [3]: 135.2 mg/dL
RALB [3]: 2.7 g/dL
TBIL [3]: 0.09 mg/dL
TC [3]: 78.2 mg/dL
TG [3]: 44.6 mg/dL
TP [3]: 5.9 g/dL
gamma-GTP [3]: 0.8 IU/L
TERMINAL_BW [4]: 209.5 g
APTT [4]: 16.1 s
Bas [4]: 0.2%
Eos [4]: 0.4%
Fbg [4]: 257 mg/dL
Hb [4]: 13.5 g/dL
Ht [4]: 39.5%
Lym [4]: 79.9%
MCH [4]: 20.8 pg
MCHC [4]: 34.1%
MCV [4]: 61 fL
Mono [4]: 2.3%
Neu [4]: 16.1%
PT [4]: 12.4 s
Plat [4]: 150.2 x10_4/uL
RBC [4]: 647.4 x10_4/ul
Ret [4]: 6.3%
WBC [4]: 89 x10_2/uL
KIDNEY_L [4]: 0.9 g
KIDNEY_R [4]: 0.9 g
KIDNEY_TOTAL [4]: 1.9 g
LIVER [4]: 9.4 g
A/G [4]: 0.9
ALP [4]: 1827.8 IU/L
ALT [4]: 46.2 IU/L
AST [4]: 75.8 IU/L
BUN [4]: 12.4 mg/dL
CRE [4]: 0.2 mg/dL
Ca [4]: 11.4 mg/dL
Cl [4]: 107.8 meq/L
DBIL [4]: 0.046 mg/dL
GLC [4]: 156.4 mg/dL
IP [4]: 8.3 mg/dL
K [4]: 4.3 meq/L
LDH [4]: 72 IU/L
Na [4]: 142.8 meq/L
PL [4]: 149 mg/dL
RALB [4]: 2.7 g/dL
TBIL [4]: 0.098 mg/dL
TC [4]: 84.2 mg/dL
TG [4]: 236.8 mg/dL
TP [4]: 5.8 g/dL
gamma-GTP [4]: 1 IU/L
TERMINAL_BW [5]: 203.7 g
APTT [5]: 15.1 s
Bas [5]: 0.1%
Eos [5]: 0.6%
Fbg [5]: 266 mg/dL
Hb [5]: 13.4 g/dL
Ht [5]: 39%
Lym [5]: 75.5%
MCH [5]: 21.4 pg
MCHC [5]: 34.3%
MCV [5]: 62.3 fL
Mono [5]: 1.9%
Neu [5]: 20.8%
PT [5]: 12.1 s
Plat [5]: 140.3 x10_4/uL
RBC [5]: 626.2 x10_4/ul
Ret [5]: 8.2%
WBC [5]: 81.2 x10_2/uL
KIDNEY_L [5]: 0.9 g
KIDNEY_R [5]: 0.8 g
KIDNEY_TOTAL [5]: 1.7 g
LIVER [5]: 7.8 g
A/G [5]: 0.9
ALP [5]: 1489.2 IU/L
ALT [5]: 51.4 IU/L
AST [5]: 79 IU/L
BUN [5]: 9.4 mg/dL
CRE [5]: 0.2 mg/dL
Ca [5]: 10.9 mg/dL
Cl [5]: 105.8 meq/L
DBIL [5]: 0.028 mg/dL
GLC [5]: 174.6 mg/dL
IP [5]: 10 mg/dL
K [5]: 3.6 meq/L
LDH [5]: 63.6 IU/L
Na [5]: 142 meq/L
PL [5]: 119 mg/dL
RALB [5]: 2.7 g/dL
TBIL [5]: 0.096 mg/dL
TC [5]: 70.4 mg/dL
TG [5]: 55.4 mg/dL
TP [5]: 5.7 g/dL
gamma-GTP [5]: 1 IU/L
TERMINAL_BW [6]: 202.1 g
APTT [6]: 16.4 s
Bas [6]: 0.2%
Eos [6]: 0.6%
Fbg [6]: 267.6 mg/dL
Hb [6]: 13.5 g/dL
Ht [6]: 39.6%
Lym [6]: 68.4%
MCH [6]: 20.9 pg
MCHC [6]: 34.2%
MCV [6]: 61.1 fL
Mono [6]: 2.8%
Neu [6]: 27%
PT [6]: 12.6 s
Plat [6]: 154.9 x10_4/uL
RBC [6]: 646.8 x10_4/ul
Ret [6]: 7.5%
WBC [6]: 78.3 x10_2/uL
KIDNEY_L [6]: 0.9 g
KIDNEY_R [6]: 0.9 g
KIDNEY_TOTAL [6]: 1.7 g
LIVER [6]: 7.7 g
A/G [6]: 0.8
ALP [6]: 1463.6 IU/L
ALT [6]: 49 IU/L
AST [6]: 73.8 IU/L
BUN [6]: 11.2 mg/dL
CRE [6]: 0.2 mg/dL
Ca [6]: 10.8 mg/dL
Cl [6]: 106.8 meq/L
DBIL [6]: 0.024 mg/dL
GLC [6]: 172.4 mg/dL
IP [6]: 10.4 mg/dL
K [6]: 4 meq/L
LDH [6]: 62.4 IU/L
Na [6]: 141.8 meq/L
PL [6]: 124.2 mg/dL
RALB [6]: 2.6 g/dL
TBIL [6]: 0.084 mg/dL
TC [6]: 75.8 mg/dL
TG [6]: 40.8 mg/dL
TP [6]: 5.8 g/dL
gamma-GTP [6]: 1.2 IU/L
TERMINAL_BW [7]: 199.8 g
APTT [7]: 17.5 s
Bas [7]: 0.2%
Eos [7]: 0.7%
Fbg [7]: 289 mg/dL
Hb [7]: 13.9 g/dL
Ht [7]: 40.9%
Lym [7]: 68.4%
MCH [7]: 20.7 pg
MCHC [7]: 34%
MCV [7]: 60.9 fL
Mono [7]: 1.6%
Neu [7]: 28.5%
PT [7]: 13 s
Plat [7]: 141.5 x10_4/uL
RBC [7]: 671.8 x10_4/ul
Ret [7]: 7%
WBC [7]: 76.1 x10_2/uL
KIDNEY_L [7]: 0.9 g
KIDNEY_R [7]: 0.9 g
KIDNEY_TOTAL [7]: 1.8 g
LIVER [7]: 7.2 g
A/G [7]: 0.8
ALP [7]: 1379.8 IU/L
ALT [7]: 40.8 IU/L
AST [7]: 69 IU/L
BUN [7]: 9.2 mg/dL
CRE [7]: 0.2 mg/dL
Ca [7]: 10.9 mg/dL
Cl [7]: 108.2 meq/L
DBIL [7]: 0.03 mg/dL
GLC [7]: 167.6 mg/dL
IP [7]: 10.2 mg/dL
K [7]: 4 meq/L
LDH [7]: 58.6 IU/L
Na [7]: 143.6 meq/L
PL [7]: 141.4 mg/dL
RALB [7]: 2.7 g/dL
TBIL [7]: 0.096 mg/dL
TC [7]: 87.6 mg/dL
TG [7]: 42.2 mg/dL
TP [7]: 5.9 g/dL
gamma-GTP [7]: 1 IU/L
TERMINAL_BW [8]: 207.8 g
APTT [8]: 16.8 s
Bas [8]: 0.2%
Eos [8]: 0.8%
Fbg [8]: 289.8 mg/dL
Hb [8]: 13.7 g/dL
Ht [8]: 39.6%
Lym [8]: 78.6%
MCH [8]: 21.2 pg
MCHC [8]: 34.6%
MCV [8]: 61.3 fL
Mono [8]: 2.2%
Neu [8]: 17.4%
PT [8]: 12.3 s
Plat [8]: 155.8 x10_4/uL
RBC [8]: 646.8 x10_4/ul
Ret [8]: 5.8%
WBC [8]: 68 x10_2/uL
KIDNEY_L [8]: 0.9 g
KIDNEY_R [8]: 0.9 g
KIDNEY_TOTAL [8]: 1.8 g
LIVER [8]: 9.3 g
A/G [8]: 0.8
ALP [8]: 1603 IU/L
ALT [8]: 53 IU/L
AST [8]: 73.6 IU/L
BUN [8]: 12.6 mg/dL
CRE [8]: 0.2 mg/dL
Ca [8]: 11.5 mg/dL
Cl [8]: 108.6 meq/L
DBIL [8]: 0.044 mg/dL
GLC [8]: 155.2 mg/dL
IP [8]: 8.5 mg/dL
K [8]: 4.2 meq/L
LDH [8]: 82.4 IU/L
Na [8]: 142.8 meq/L
PL [8]: 152.2 mg/dL
RALB [8]: 2.7 g/dL
TBIL [8]: 0.088 mg/dL
TC [8]: 93.4 mg/dL
TG [8]: 217 mg/dL
TP [8]: 5.9 g/dL
gamma-GTP [8]: 1 IU/L
